Results on twelve compounds are retold here after patent US20110224231A1, “Novel Lactams as Beta Secretase Inhibitors” (Pfizer Inc., priority 2008, published 2011).

Usually IC50 stands for the concentration at which inhibition is half-maximal. The low end stands for greater potency in that assay, the high end for weaker potency in that assay.

T1 sequence (P56817 46-457 limits assumed): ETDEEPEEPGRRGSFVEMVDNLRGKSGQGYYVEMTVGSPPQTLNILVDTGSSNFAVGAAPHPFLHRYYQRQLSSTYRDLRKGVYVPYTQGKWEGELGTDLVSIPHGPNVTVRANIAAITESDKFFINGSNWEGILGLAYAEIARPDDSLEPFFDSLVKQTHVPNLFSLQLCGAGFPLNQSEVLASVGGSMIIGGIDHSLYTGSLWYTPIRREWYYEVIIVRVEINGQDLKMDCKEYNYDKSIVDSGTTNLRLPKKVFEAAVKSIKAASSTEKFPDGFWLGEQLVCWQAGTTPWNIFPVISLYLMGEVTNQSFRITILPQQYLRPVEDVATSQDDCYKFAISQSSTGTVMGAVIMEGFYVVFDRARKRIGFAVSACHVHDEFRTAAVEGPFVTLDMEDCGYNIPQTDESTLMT

This test concerns the target T1, soluble human BACE (Homo sapiens, UniProt P56817).
T1 construct: cells secreting human recombinant soluble BACE; made in house; conditioned medium
Description: BACE activity Cell Free Assay (ELISA of cleaved synthetic APP substrate). The class given is biochemical. On the procedure: A synthetic APP substrate that can be cleaved by beta˜secretase and having N-terminal biotin is used to assay beta-secretase activity in the presence or absence of the inhibitory compounds. […] The substrate and test compounds are added to 384 well polypropylene plates. The reaction is initiated by the addition of soluble BACE enzyme to a final volume of 12.5 μL per well. The final assay conditions are: 0.001˜300 μM compound inhibitor, 0.05M sodium acetate (pH 4.5), 3 μM substrate, soluble human BACE, and 2% DMSO. Concentrated conditioned media from cells secreting human recombinant soluble BACE was titrated to provide a source of BACE enzyme. The cell media can be used as either a crude BACE prep or BACE can be purified using any number of techniques, including immobilized BACE inhibitor purification columns. The assay mixture is incubated for 1 hour at 37° C., and the reaction is quenched by the addition of an equal volume of 0.1M Tris, pH 8. Half of the quenched mix is incubated on clear streptavidin coated 384 well polystyrene plates for 1 hour. An ELISA is then performed using an in˜house antibody that specifically recognizes the new C˜terminus created after cleavage by BACE. […] (These polyclonal antibodies were raised in rabbits by immunizing with antigen comprised of six amino acid residues present at the carboxy terminus of the wild-type soluble APPbeta sequence (NH2-ISEVKM-COOH) or seven amino acid residues present at the carboxy terminus of the Swedish mutation at the beta cleavage site (NH2-EISEVNL˜COOH) conjugated to keyhole limpet hemacyanin by methods known to those skilled in the art.) A secondary anti˜species Horseradish Peroxidase (HRP) conjugated antibody is then utilized. The readout, following assay development with TMB substrate and quenching with 0.09M sulfuric acid, is absorbance at 450 nm.
(In general: An ELISA detects its analyte on a solid surface through an enzyme-linked reagent.)
As for `CC(C)NS(=O)(=O)c1cccc(CN2CCC3(C=CC(=O)N3c3cccc(F)c3)CC2C)c1` (racemic) [Example 28, Racemic 3-{[(5R,7S),(5S,7R)-1-(3-fluorophenyl)-7-methyl-2-oxo-1,8-diazaspiro[4.5]dec-3-en-8-yl]methyl}-N-isopropylbenzenesulfonamide], the IC50 was in the range of 10 to 100 µM.

In turn, `CC1CC2(C=CC(=O)N2c2cccc(F)c2)CCN1Cc1cccc(Oc2ccc(Cl)cc2)c1` (racemic) [Example 29, Racemic (5R,7S),(5S,7R)-8-[3-(4-chlorophenoxy)benzyl]-1-(3-fluorophenyl)-7-methyl-1,8-diazaspiro[4.5]dec-3-en-2-one] came in with a concentration for half-maximal inhibition (IC50) of 10 to 100 µM. For the compound `CC1CC2(C=CC(=O)N2c2cccc(F)c2)CCN1Cc1cccc(-c2ccc(C(F)(F)F)cn2)c1` (racemic) [Example 30, Racemic (5R,7S),(5S,7R)-1-(3-fluorophenyl)-7-methyl-8-{3-[5-(trifluoromethyl)pyridin-2-yl]benzyl}-1,8-diazaspiro[4.5]dec-3-en-2-one], the IC50 lay within 100 to 300 µM. Then `CCNc1ccc(CN2CCC3(C=CC(=O)N3c3cccc(F)c3)CC2C)cn1` (racemic) [Example 31, Racemic (5R,7S),(5S,7R)-8-{[6-(ethylamino)pyridin-3-yl]methyl}-1-(3-fluorophenyl)-7-methyl-1,8-diazaspiro[4.5]dec-3-en-2-one], with 100 to 300 µM; and `CCCNc1ccc(CN2CCC3(C=CC(=O)N3c3cccc(F)c3)CC2C)cn1` (racemic) [Example 32, Racemic (5R,7S),(5S,7R)-1-(3-fluorophenyl)-7-methyl-8-{[6-(propylamino)pyridin-3-yl]methyl}-1,8-diazaspiro[4.5]dec-3-en-2-one], with 100 to 300 µM. The figure for `CCOc1cccc(CN2CCC3(CCC(=O)N3c3cccc(F)c3)CC2C)c1` (racemic) [Example 33, Racemic (5R,7S),(5S,7R)-8-(3-ethoxybenzyl)-1-(3-fluorophenyl)-7-methyl-1,8-diazaspiro[4.5]decan-2-one] is 100 to 300 µM. In turn, `Cc1ccc(Oc2cccc(CN3CCC4(CCC(=O)N4c4cccc(F)c4)CC3C)c2)cc1` (racemic) [Example 34, Racemic (5R,7S),(5S,7R)-1-(3-fluorophenyl)-7-methyl-8-[3-(4-methylphenoxy)benzyl]-1,8-diazaspiro[4.5]decan-2-one] showed an IC50 of 10 to 100 µM.

In the case of `COc1ccc(Oc2cccc(CN3CCC4(CCC(=O)N4c4cccc(F)c4)CC3C)c2)cc1` (racemic) [Example 35, Racemic (5R,7S),(5S,7R)-1-(3-fluorophenyl)-8-[3-(4-methoxyphenoxy)benzyl]-7-methyl-1,8-diazaspiro[4.5]decan-2-one], the IC50 is 10 to 100 µM. Then `CC1CC2(CCC(=O)N2c2cccc(F)c2)CCN1Cc1cccc(S(=O)(=O)N2CCCC2)c1` (racemic) [Example 36, Racemic (5R,7S),(5S,7R)-1-(3-fluorophenyl)-7-methyl-8-[3-(pyrrolidin-1-ylsulfonyl)benzyl]-1,8-diazaspiro[4.5]decan-2-one], with 100 to 300 µM; and `CC1CC2(CCC(=O)N2c2cccc(F)c2)CCN1Cc1ccc(O)cc1` (racemic) [Example 37, Racemic (5R,7S),(5S,7R)-1-(3-fluorophenyl)-8-(4-hydroxybenzyl)-7-methyl-1,8-diazaspiro[4.5]decan-2-one], with 10 to 100 µM; and `Cc1cc(CN2CCC3(CCC(=O)N3c3cccc(F)c3)CC2C)ccc1O` (racemic) [Example 38, Racemic (5R,7S),(5S,7R)-1-(3-fluorophenyl)-8-(4-hydroxy-3-methylbenzyl)-7-methyl-1,8-diazaspiro[4.5]decan-2-one], with 10 to 100 µM.

Regarding `CCCn1nccc1CN1CCC2(CCC(=O)N2c2cccc(F)c2)CC1C` (racemic) [Example 39, Racemic (5R,7S),(5S,7R)-1-(3-fluorophenyl)-7-methyl-8-[(1-propyl-1H-pyrazol-5-yl)methyl]-1,8-diazaspiro[4.5]decan-2-one], the IC50 is 100 to 300 µM.
